Laboratory results as given in PubChem BioAssay AID338 (DTP/NCI, 2004).
Where “and” joins values, the source holds several entries; their conditions need not be identical. Equal entries are not always repeated. Toxic doses and inconclusive results are not listed. *1 amine or outer side, *2 acyl side, *3 side chain or, on linkers, in order; H or OH if unused. Where a SMILES comes first, the peptide text is derived from it. Bridges are numbered along the chain shown (N, C = ends). Roman numbers before positions name the chains, in order. [ ]: non-standard residue; d: D form. Actinocin(9to1) = Cc1c2oc3c(C)ccc(C(=O)[*:1])c3nc-2c(C(=O)[*:2])c(N)c1=O; aThr = C[C@H](O)[C@H](N)C(=O)O; NMeV = CN[C@H](C(=O)O)C(C)C; Sar = CNCC(=O)O

System: BDF1 mice, P388 leukemia (terephthalanilide-resistant), survival T/C
Assay: NCI In Vivo Anticancer Drug Screen. Data for tumor model P388 Leukemia resistant to A Terephthalanilide; NSC 38280 (intraperitoneal) in B6D2F1 (BDF1) mice
Conditions: endpoint: median survival time, schedule: Q01DX010 (ip), higher = longer survival
Procedure: The antitumor activity of compounds was measured in mice bearing transplantable tumors. Survival or tumor size were measured and the results are expressed as the measurement made in the treated group (T) divided by the measurement made in the vehicle treated control group (C). The tumor model used in this assay is P388 Leukemia resistant to A Terephthalanilide; NSC 38280 (intraperitoneal) in B6D2F1 (BDF1) mice

[1] = dose: 2.0 mg/kg/injection, vehicle: saline
[2] = dose: 4.0 mg/kg/injection, vehicle: saline
[3] = dose: 8.0 mg/kg/injection, vehicle: saline
[4] = dose: 31.3 mg/kg/injection, vehicle: saline
[5] = dose: 62.5 mg/kg/injection, vehicle: saline
[6] = dose: 125.0 mg/kg/injection, vehicle: saline
[7] = dose: 250.0 mg/kg/injection, vehicle: saline
[8] = dose: 27.0 mg/kg/injection, vehicle: saline
[9] = dose: 200.0 mg/kg/injection, vehicle: saline
[10] = dose: 15.6 mg/kg/injection, vehicle: saline
[11] = dose: 16.0 mg/kg/injection, vehicle: saline
[12] = dose: 25.0 mg/kg/injection, vehicle: saline
[13] = dose: 5.0 mg/kg/injection, vehicle: saline
[14] = dose: 10.0 mg/kg/injection, vehicle: saline
[15] = dose: 20.0 mg/kg/injection, vehicle: saline
[16] = dose: 40.0 mg/kg/injection, vehicle: saline

Q: `O[C@H](CN1CC1)[C@@H](O)CN1CC1` was tested. Which T/C (dose: 62.5 micrograms/kg/injection, vehicle: saline) did it give?
A: 120 % of control

Q: And the T/C (dose: 125.0 micrograms/kg/injection, vehicle: saline)?
A: 200 % of control

Q: What about the T/C (dose: 250.0 micrograms/kg/injection, vehicle: saline) of the same compound?
A: 175 % of control

Q: And the T/C (dose: 500.0 micrograms/kg/injection, vehicle: saline)?
A: 120 % of control

Q: Which results are given for `O=C(Nc1ccc(NC2=NCCN2)cc1)c1ccc(C(=O)Nc2ccc(NC3=NCCN3)cc2)cc1`?
A: T/C [1]: 100 % of control and 106 % of control; T/C [2]: 150 % of control; T/C [3]: 181 % of control

Q: How did the T/C (dose: 800.0 mg/kg/injection, vehicle: saline) turn out when `O=c1cnn(C2OC(CO)C(O)C2O)c(=O)[nH]1` (stereo not drawn) was run?
A: 120 % of control

Q: And the T/C (dose: 1600.0 mg/kg/injection, vehicle: saline)?
A: 110 % of control

Q: `CCOC(=O)NP(=O)(N1CC1(C)C)N1CC1(C)C` (stereo not drawn) was tested. Which T/C [4] did it give?
A: 110 % of control

Q: What about the T/C [5] of the same compound?
A: 160 % of control

Q: And the T/C [6]?
A: 190 % of control

Q: And the T/C [7]?
A: 160 % of control

Q: Which results are given for `CS(=O)(=O)OCCCl`?
A: T/C (dose: 18.8 mg/kg/injection, vehicle: saline): 105 % of control; T/C (dose: 37.5 mg/kg/injection, vehicle: saline): 110 % of control and 111 % of control; T/C (dose: 75.0 mg/kg/injection, vehicle: saline): 111 % of control and 115 % of control; T/C (dose: 150.0 mg/kg/injection, vehicle: saline): 110 % of control and 122 % of control

Q: How did the T/C (dose: 18.0 mg/kg/injection, vehicle: saline) turn out when `CN=C(NC)c1ccc(NC(=O)c2ccc(C(=O)Nc3ccc(C(=NC)NC)cc3)c(Cl)c2)cc1` was run?
A: 105 % of control

Q: What about the T/C [8] of the same compound?
A: 100 % of control

Q: Which results are given for `CN(C)CC(=O)c1ccc(O)c(O)c1`?
A: T/C [9]: 113 % of control; T/C (dose: 300.0 mg/kg/injection, vehicle: saline): 113 % of control; T/C (dose: 450.0 mg/kg/injection, vehicle: saline): 113 % of control

Q: What does the source list for `CCn1cnc2c(=S)nc[nH]c21`?
A: T/C [10]: 100 % of control and 105 % of control; T/C [4]: 105 % of control and 110 % of control; T/C [5]: 94 % of control and 100 % of control; T/C [6]: 110 % of control

Q: Which T/C [3] does the source give for `c1ccc(CNc2ncnc3[nH]ncc23)cc1` here?
A: 90 % of control

Q: And the T/C [11]?
A: 90 % of control and 95 % of control

Q: What about the T/C (dose: 32.0 mg/kg/injection, vehicle: saline) of the same compound?
A: 90 % of control and 100 % of control

Q: And the T/C (dose: 64.0 mg/kg/injection, vehicle: saline)?
A: 90 % of control and 105 % of control

Q: `O=C1CCC(N2C(=O)c3ccccc3C2=O)C(=O)N1` (stereo not drawn) was tested. Which T/C [4] did it give?
A: 117 % of control

Q: What about the T/C [5] of the same compound?
A: 100 % of control and 117 % of control

Q: What about the T/C [6] of the same compound?
A: 100 % of control and 105 % of control

Q: And the T/C [7]?
A: 90 % of control and 94 % of control

Q: `Nc1nc2n[nH]nc2c(=O)[nH]1` was tested. Which T/C (dose: 25.0 mg/kg/injection, vehicle: alkali diluted with saline) did it give?
A: 162 % of control

Q: And the T/C (dose: 50.0 mg/kg/injection, vehicle: alkali diluted with saline)?
A: 162 % of control

Q: And the T/C (dose: 100.0 mg/kg/injection, vehicle: alkali diluted with saline)?
A: 175 % of control

Q: What about the T/C (dose: 200.0 mg/kg/injection, vehicle: alkali diluted with saline) of the same compound?
A: 175 % of control

Q: How did the T/C [12] turn out when `O=C(Nc1ccc(C2=NCCN2)cc1)c1ccc(C(=O)Nc2ccc(C3=NCCN3)cc2)c(NC(=O)c2ccc(C(=O)Nc3cc(C(=O)Nc4ccc(C5=NCCN5)cc4)ccc3C(=O)Nc3ccc(C4=NCCN4)cc3)cc2)c1` was run?
A: 100 % of control

Q: And the T/C (dose: 50.0 mg/kg/injection, vehicle: saline)?
A: 94 % of control

Q: What about the T/C (dose: 100.0 mg/kg/injection, vehicle: saline) of the same compound?
A: 94 % of control

Q: What about the T/C [9] of the same compound?
A: 100 % of control

Q: Which results are given for `O=c1[nH]cc(F)c(=O)[nH]1`?
A: T/C [13]: 120 % of control; T/C [14]: 150 % of control and 183 % of control; T/C [15]: 170 % of control and 222 % of control; T/C [16]: 95 % of control and 111 % of control

Q: How did the T/C [13] turn out when `CN(N=O)C(N)=O` was run?
A: 113 % of control

Q: What about the T/C [15] of the same compound?
A: 118 % of control

Q: What does the source list for `CN(C)c1ccc(Nc2c3ccccc3nc3ccccc23)cc1`?
A: T/C [11]: 95 % of control; T/C (dose: 24.0 mg/kg/injection, vehicle: saline): 104 % of control; T/C (dose: 36.0 mg/kg/injection, vehicle: saline): 100 % of control and 104 % of control and 108 % of control; T/C (dose: 54.0 mg/kg/injection, vehicle: saline): 95 % of control and 100 % of control and 104 % of control; T/C (dose: 80.0 mg/kg/injection, vehicle: saline): 90 % of control and 109 % of control

Q: Which T/C (dose: 13.3 mg/kg/injection, vehicle: saline) does the source give for `CNc1nc(Nc2ccc(C3=NCCN3)cc2)nc(Nc2ccc(C3=NCCN3)cc2)n1` here?
A: 117 % of control

Q: And the T/C [15]?
A: 111 % of control

Q: What about the T/C (dose: 30.0 mg/kg/injection, vehicle: saline) of the same compound?
A: 117 % of control

Q: What does the source list for `O=C(Nc1ccc(C2=NCCN2)cc1)c1cc(Cl)cc(C(=O)Nc2ccc(C3=NCCN3)cc2)c1`?
A: T/C (dose: 140.0 mg/kg/injection, vehicle: saline): 100 % of control; T/C (dose: 210.0 mg/kg/injection, vehicle: saline): 100 % of control; T/C (dose: 315.0 mg/kg/injection, vehicle: saline): 100 % of control; T/C (dose: 473.0 mg/kg/injection, vehicle: saline): 94 % of control

Q: Which T/C (dose: 0.75 mg/kg/injection, vehicle: saline) does the source give for `S=P(N1CC1)(N1CC1)N1CC1` here?
A: 112 % of control

Q: And the T/C (dose: 6.0 mg/kg/injection, vehicle: saline)?
A: 162 % of control

Q: Which results are given for `Nc1nc(=S)c2ncn(C3OC(CO)C(O)C3O)c2[nH]1` (stereo not drawn)?
A: T/C [1]: 109 % of control; T/C [2]: 104 % of control; T/C [3]: 105 % of control; T/C [11]: 105 % of control

Q: How did the T/C (dose: 12.5 micrograms/kg/injection, vehicle: other) turn out when `Cc1c2oc3c(C)ccc(C(=O)N[C@@H]4C(=O)N[C@H](C(C)C)C(=O)N5CCC[C@H]5C(=O)N(C)CC(=O)N(C)[C@@H](C(C)C)C(=O)O[C@H]4C)c3nc-2c(C(=O)N[C@@H]2C(=O)N[C@H](C(C)C)C(=O)N3CCC[C@H]3C(=O)N(C)CC(=O)N(C)[C@@H](C(C)C)C(=O)O[C@H]2C)c(N)c1=O` (I: [aThr][dV]P[Sar][NMeV] / II: [aThr][dV]P[Sar][NMeV]; ester I:1-I:C, II:1-II:C; linker I:N-II:N via Actinocin(9to1)) was run?
A: 111 % of control and 120 % of control

Q: And the T/C (dose: 25.0 micrograms/kg/injection, vehicle: other)?
A: 116 % of control and 120 % of control

Q: And the T/C (dose: 50.0 micrograms/kg/injection, vehicle: other)?
A: 120 % of control and 122 % of control

Q: What about the T/C (dose: 100.0 micrograms/kg/injection, vehicle: other) of the same compound?
A: 115 % of control and 122 % of control

Q: With `CN(N=O)C(=O)NC(C=O)C(O)C(O)C(O)CO` (stereo not drawn) as the compound, how does the T/C [8] read?
A: 109 % of control

Q: And the T/C [16]?
A: 113 % of control

Q: And the T/C (dose: 60.0 mg/kg/injection, vehicle: saline)?
A: 154 % of control

Q: What about the T/C (dose: 90.0 mg/kg/injection, vehicle: saline) of the same compound?
A: 113 % of control

Q: Which T/C (dose: 7.8 mg/kg/injection, vehicle: saline) does the source give for `CC(=O)Nc1ccc2nc3ccc(NC(C)=O)cc3[n+](-c3ccccc3)c2c1` here?
A: 90 % of control

Q: And the T/C [10]?
A: 90 % of control

Q: With `C[C@@H]1C[C@@H]([C@H](O)CC2CC(=O)NC(=O)C2)C(=O)[C@@H](C)C1` as the compound, how does the T/C [13] read?
A: 93 % of control and 100 % of control

Q: What about the T/C [14] of the same compound?
A: 100 % of control

Q: And the T/C [15]?
A: 100 % of control

Q: And the T/C [16]?
A: 112 % of control

Q: Which results are given for `CCCNc1ncnc2[nH]ncc12`?
A: T/C (dose: 3.13 mg/kg/injection, vehicle: saline): 95 % of control and 105 % of control; T/C (dose: 6.25 mg/kg/injection, vehicle: saline): 100 % of control; T/C (dose: 12.5 mg/kg/injection, vehicle: saline): 90 % of control and 94 % of control; T/C [12]: 110 % of control; T/C [7]: 111 % of control

Q: What does the source list for `CCCCNc1ncnc2c1cnn2C`?
A: T/C [4]: 100 % of control; T/C [5]: 95 % of control and 111 % of control; T/C [6]: 88 % of control
